The source of these data is US8148415B2, “Sulfamic acid ester compounds useful in the inhibition of steroid sulphatase activity and aromatase activity” (Sterix Limited, priority 2004, dated 2012).

Data set [1] addresses T1, Steroid sulphatase (Homo sapiens, UniProt P08842).
T1 sequence (P08842 22-583): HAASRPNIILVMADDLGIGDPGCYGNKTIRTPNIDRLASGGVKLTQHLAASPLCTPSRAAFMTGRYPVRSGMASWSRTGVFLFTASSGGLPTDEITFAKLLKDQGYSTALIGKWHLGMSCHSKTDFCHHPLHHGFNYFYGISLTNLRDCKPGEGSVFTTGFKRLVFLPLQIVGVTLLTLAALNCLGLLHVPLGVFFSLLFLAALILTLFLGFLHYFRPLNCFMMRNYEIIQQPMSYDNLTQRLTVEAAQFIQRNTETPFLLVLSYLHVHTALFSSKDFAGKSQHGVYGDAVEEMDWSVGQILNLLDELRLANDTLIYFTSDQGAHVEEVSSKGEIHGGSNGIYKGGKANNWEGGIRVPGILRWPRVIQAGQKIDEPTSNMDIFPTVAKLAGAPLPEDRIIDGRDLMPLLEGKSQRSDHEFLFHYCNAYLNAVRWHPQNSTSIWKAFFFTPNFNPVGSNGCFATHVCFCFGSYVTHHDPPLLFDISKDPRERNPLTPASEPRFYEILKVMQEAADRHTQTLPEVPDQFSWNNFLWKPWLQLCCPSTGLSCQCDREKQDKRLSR
Conditions: cited from earlier work.

Data set [2] has as its system rats. The settings on record: rat, in vivo, cited from earlier work.
The conditions of data set [3]: cited from earlier work.
The target in data set [4] is T2, rat liver DHEA-STS (Rattus norvegicus, UniProt P15589).
T2 construct: rat liver E1-STS (99%) and DHEA-STS (99%) activities; from tissue; host or cells: rat liver
T2 sequence (P15589 20-577): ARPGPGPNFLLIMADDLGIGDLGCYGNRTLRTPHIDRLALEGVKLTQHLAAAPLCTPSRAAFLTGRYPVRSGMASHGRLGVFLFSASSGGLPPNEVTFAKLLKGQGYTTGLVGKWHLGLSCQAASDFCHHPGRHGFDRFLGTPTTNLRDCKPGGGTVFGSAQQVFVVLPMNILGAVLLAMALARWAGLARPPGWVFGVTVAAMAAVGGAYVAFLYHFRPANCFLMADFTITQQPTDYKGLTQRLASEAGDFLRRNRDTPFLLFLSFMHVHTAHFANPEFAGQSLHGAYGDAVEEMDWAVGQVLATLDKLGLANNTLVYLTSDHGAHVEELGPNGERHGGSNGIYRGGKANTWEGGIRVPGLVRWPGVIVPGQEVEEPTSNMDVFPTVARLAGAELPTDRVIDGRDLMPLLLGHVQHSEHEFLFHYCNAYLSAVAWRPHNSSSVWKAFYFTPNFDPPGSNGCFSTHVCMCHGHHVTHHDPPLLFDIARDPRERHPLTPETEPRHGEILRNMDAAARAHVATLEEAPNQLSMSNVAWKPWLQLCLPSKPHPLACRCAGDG
Conditions: administered orally or subcutaneously; cited from earlier work.

Data set [5] deals with T3, rat liver E1-STS (Rattus norvegicus, UniProt P15589).
T3 construct: from tissue; host or cells: rat liver
T3 sequence (P15589 20-577): T2 sequence (P15589 20-577)
The settings on record: administered orally or subcutaneously; cited from earlier work.

The target of data set [6] is T4, E1-STS (Homo sapiens, UniProt P08842).
T4 construct: endogenous in cells; host or cells: MCF-7 cells
T4 sequence (P08842 22-583): T1 sequence (P08842 22-583)
Conditions: intact MCF-7 cells, 0.1 nM; cited from earlier work.

The target of data set [7] is T5, Aromatase (Homo sapiens, UniProt P11511).
T5 construct: Aromatase activity is measured in JEG3 choriocarcinoma cells, obtained from the ATCC; host or cells: JEG3 choriocarcinoma cells
T5 sequence (P11511 1-503): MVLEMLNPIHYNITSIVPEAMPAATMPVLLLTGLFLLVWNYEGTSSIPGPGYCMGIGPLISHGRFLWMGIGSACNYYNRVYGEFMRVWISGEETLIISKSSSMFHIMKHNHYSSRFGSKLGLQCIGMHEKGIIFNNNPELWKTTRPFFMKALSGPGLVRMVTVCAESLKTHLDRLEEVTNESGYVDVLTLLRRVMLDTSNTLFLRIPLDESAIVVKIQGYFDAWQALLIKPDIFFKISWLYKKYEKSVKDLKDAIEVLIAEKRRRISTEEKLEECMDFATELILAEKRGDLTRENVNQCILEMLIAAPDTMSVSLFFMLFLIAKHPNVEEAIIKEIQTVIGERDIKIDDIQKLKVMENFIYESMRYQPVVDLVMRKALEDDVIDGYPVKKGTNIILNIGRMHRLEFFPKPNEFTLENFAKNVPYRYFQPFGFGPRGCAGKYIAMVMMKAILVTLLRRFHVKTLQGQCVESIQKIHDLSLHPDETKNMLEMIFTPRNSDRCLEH
Description: Aromatase activity in intact JEG3 choriocarcinoma cells (Protocol 6). In kind it is cell-based.

For data set [8], the target named is T1, Steroid sulphatase. Description: Inhibition of steroid sulphatase activity in intact JEG3 cells (Protocol 1). The arrangement: host or cells: JEG3 choriocarcinoma cells. The class given is cell-based. The settings on record: read-out: JEG3 cells IC50 Sulfatase. On the procedure: Assay for Determining STS Activity Using Cancer Cells
Inhibition of Steroid Sulphatase Activity in JEG3 Cells
Steroid sulphatase activity is measured in vitro using intact JEG3 choriocarcinoma cells. This cell line may be used to study the control of human breast cancer cell growth.
Cells are maintained in Minimal Essential Medium (MEM) (Flow Laboratories, Irvine, Scotland) containing 20 mM HEPES, 5% foetal bovine serum, 2 mM glutamine, non-essential amino acids and 0.075% sodium bicarbonate. Up to 30 replicate 25 cm2 tissue culture flasks are seeded with approximately 1×10^5 cells/flask using the above medium. Cells are grown to 80% confluency and the medium is changed every third day.
Intact monolayers of JEG3 cells in triplicate 25 cm^2 tissue culture flasks are washed with Earle's Balanced Salt Solution (EBSS from ICN Flow, High Wycombe, U.K.) and incubated for 3-4 hours at 37° C. with 5 pmol (7×10^5 dpm) [6,7-3H]oestrone-3-sulphate (specific activity 60 Ci/mmol from New England Nuclear, Boston, Mass., U.S.A.) in serum-free MEM (2.5 ml) together with oestrone-3-sulphamate (11 concentrations: 0; 1 fM; 0.01 pM; 0.1 pM; 1 pM; 0.01 nM; 0.1 nM; 1 nM; 0.01 mM; 0.1 mM; 1 mM). […] A portion (2 ml) of the organic phase is removed, evaporated and the 3H and 14C content of the residue determined by scintillation spectrometry. […]

Where two headings read alike, the source gives them in different places.

The term melting point denotes the temperature of the solid-liquid transition. In turn, `COc1ccc(C(c2ccc(OC)c(O)c2)n2cncn2)cc1O` had a melting point of 217.5 to 219 °C.
Consider `COc1cc2c(cc1OS(N)(=O)=O)CC[C@@H]1[C@@H]2CC[C@]2(C)C(=O)CC[C@@H]12` [2-methoxyoestrone-3-O-sulphamate], for which the “potency as steroid sulphatase inhibitor relative to EMATE” value in [1] was “equipotent with EMATE”. Besides, the oestrogenicity result in [2] is recorded as “devoid of oestrogenicity”.
On to `C[C@]12CC[C@@H]3c4ccc(OS(=O)(=O)O)cc4CC[C@H]3[C@@H]1CCC2=O` [E1S, oestrone sulphate], for which the half-life in blood in data set [3] is 10 to 12 h.
As for `CC12CCC3c4ccc(OS(N)(=O)=O)cc4CCC3C1CCC2=O` (centres unmarked) [EMATE, oestrone-3-sulphamate], the “inhibition of rat liver DHEA-STS activity” value in data set [4] was 99%. The “inhibition of rat liver E1-STS activity” value in [5] was 99%. Moreover, the “oral uterotrophic activity relative to estradiol” value in data set [2] (po) was 100 times. The “inhibition of E1-STS activity” value in [6] is reported as “more than 99%”.
Usually IC50 stands for the midpoint of a concentration-inhibition curve. In the case of `N#Cc1ccc(N(Cc2cccc(OS(N)(=O)=O)c2)n2cnnc2)cc1` [STX334, 4-[(3-O-Sulfamoylbenzyl)(4-cyanophenyl)amino]-4H-[1,2,4]triazole], the IC50 in data set [7] (intact JEG3 cells) amounted to 39 nM; in data set [8], 5.13 µM.
For the molecule `N#Cc1ccc(N(Cc2ccc(Br)c(OS(N)(=O)=O)c2)n2cnnc2)cc1` [STX1217, 4-[(4-Bromo-3-O-sulfamoylbenzyl)(4cyanophenyl)amino]-4H-[1,2,4]triazole], the IC50 in data set [7] came out at 3.9 nM.
